Columns and labels:
[1] = Hue evaluation for ultraviolet absorbers, Hazen color (APHA), Lovibond Nessleriser 2150; assay type: physicochemical
Procedure: Hue Evaluation for Ultraviolet Absorbers
Hazen color (APHA) was measured using Lovibond Nessleriser 2150.

[2] = Odor evaluation for ultraviolet absorbers after a time has elapsed (storage for 3 weeks); assay type: physicochemical; conditions: 10 ranks: 1, no odor, 10, very intense odor; for Odor evaluation for ultraviolet absorber after a time has elapsed: In the dark: stored in the dark at 50° C. for 3 weeks; for Odor evaluation for ultraviolet absorber after a time has elapsed: In the light: stored in the light at 20° C., 1000 lux for 3 weeks
Procedure: Odor Evaluation for Ultraviolet Absorbers After a Time Has Elapsed 100 ml of each ultraviolet absorber was filled into two different 200-ml sample bottles, and one bottle was stored in the dark (at 50° C.) and the other in the light (at 20° C., 1000 lux) for 3 weeks. The intensity of overall odor and that of irritating odor were evaluated using one of 10 ranks: 1, no odor; . . .; 10, very intense odor and scored.

Compound	Evaluation for ultraviolet absorber: Hue [1]	Odor evaluation for ultraviolet absorber after a time has elapsed: In the dark [2]	Odor evaluation for ultraviolet absorber after a time has elapsed: In the light [2]
CCCCC(CC)COC(=O)C=Cc1ccc(OC)cc1 (stereo not drawn) [Example 2, 2-ethylhexyl p-methoxycinnamate]	10 APHA	2	1
CCCCC(CC)COC(=O)C=Cc1ccc(OC)cc1 (stereo not drawn) [compound 1, 2-ethylhexyl p-methoxycinnamate]	40 APHA	5	4
CCCCC(CC)COC(=O)C=Cc1ccc(OC)cc1 (stereo not drawn) [compound 2, 2-ethylhexyl p-methoxycinnamate]	10 APHA	5	4
CCCCC(CC)COC(=O)C=Cc1ccc(OC)cc1 (stereo not drawn) [compound 4, 2-ethylhexyl p-methoxycinnamate]	10 APHA	4	3
CCCCC(CC)COC(=O)C=Cc1ccc(OC)cc1 (stereo not drawn) [compound 9, 2-ethylhexyl p-methoxycinnamate]	10 APHA	2	3

Next, values leading:

Evaluation for ultraviolet absorber: Hue [1]	Odor evaluation for ultraviolet absorber after a time has elapsed: In the dark [2]	Odor evaluation for ultraviolet absorber after a time has elapsed: In the light [2]	Compound
10 APHA	2	1	CCCCC(CC)COC(=O)C=Cc1ccc(OC)cc1 (stereo not drawn) [Example 1, 2-ethylhexyl p-methoxycinnamate]
10 APHA	2	1	CCCCC(CC)COC(=O)C=Cc1ccc(OC)cc1 (stereo not drawn) [Example 3, 2-ethylhexyl p-methoxycinnamate]
10 APHA	2	1	CCCCC(CC)COC(=O)C=Cc1ccc(OC)cc1 (stereo not drawn) [Example 4, 2-ethylhexyl p-methoxycinnamate]
40 APHA	4	4	CCCCC(CC)COC(=O)C=Cc1ccc(OC)cc1 (stereo not drawn) [compound 3, 2-ethylhexyl p-methoxycinnamate]
20 APHA	3	3	CCCCC(CC)COC(=O)C=Cc1ccc(OC)cc1 (stereo not drawn) [compound 5, 2-ethylhexyl p-methoxycinnamate]
20 APHA	3	2	CCCCC(CC)COC(=O)C=Cc1ccc(OC)cc1 (stereo not drawn) [compound 6, 2-ethylhexyl p-methoxycinnamate]
10 APHA	3	2	CCCCC(CC)COC(=O)C=Cc1ccc(OC)cc1 (stereo not drawn) [compound 7, 2-ethylhexyl p-methoxycinnamate]
20 APHA	3	2	CCCCC(CC)COC(=O)C=Cc1ccc(OC)cc1 (stereo not drawn) [compound 8, 2-ethylhexyl p-methoxycinnamate]

Reference: US20060193796A1, “Method for refining ultraviolet absorbent, ultraviolet absorbent and cosmetic material” (priority 2003, published 2006)
